Test results reported in PMC12391994, “Synthesis of a fac-Tricarbonylrhenium(I) Complex with Pyrithione, Its Physicochemical Characterization, and Assessment of Biological Effects” (ACS Omega, 2025).
Like-named read-outs stand apart in the source and are kept apart here.

Assays:
cathepsin L = target: T1, cathepsin L (Homo sapiens, UniProt P07711); experiment: Relative inhibition of cathepsin L; assay type: biochemical; conditions: 50 μM; substrate Z-Phe-Arg-AMC; pH 5.5
T1 construct: made in house; host or cells: E. coli
Excerpt: (§1) Relative inhibition is expressed as a percentage of the decrease in reaction velocity in the presence of an inhibitor, in comparison to the reaction velocity in the absence of an inhibitor. For that purpose, the specific fluorogenic substrates Z-Arg-Arg-7-amido-4-methylcoumarin (Z-Arg-Arg-AMC) and 2-aminobenzoyl (Abz)-Gly-Ile-Val-Arg-Ala-Lys-(Dnp)-OH were used for cathepsin B endopeptidase and exopeptidase activities, respectively, and Z-Phe-Arg-AMC was used for cathepsin L and V activities.
(§2) Human recombinant cathepsin B was expressed in E. coli, recombinant cathepsin V was expressed in Pichia pastoris, and human recombinant cathepsin L was expressed in E. coli, as reported. − For the determination of cathepsin B endopeptidase and exopeptidase activities, 100 mM phosphate buffer (pH 6.0) and 60 mM acetate buffer (pH 5.0) were used, respectively, and for the determination of cathepsin V and L activities, 100 mM acetate buffer (pH 5.5) was used. All buffers contained 0.1% PEG 8000 (Sigma-Aldrich, St. Louis, MO), 5 mM cysteine, and 1.5 mM EDTA. Prior to the assay, the enzymes were activated in the assay buffer for 5 min at 37 °C.
(§3) To determine the effect of inhibitors on enzyme activity, the following substrates were used: Z-Arg-Arg-AMC (final concentration 5 μM, Z-RR-AMC; Bachem, Bubendorf, Switzerland) for cathepsin B endopeptidase activity, Abz-Gly-Ile-Val-Arg-Ala-Lys-(Dnp)-OH (final concentration 1 μM, Abz-GIVRAK-(Dnp)-OH; Bachem) for cathepsin B exopeptidase activity, and Z-Phe-Arg-AMC (final concentration 2 μM, Z-FR-AMC; Bachem) for cathepsin V and L activity. The substrate ([…]) at a final concentration and inhibitor ([…]) at a concentration of 50 μM were added to the wells of a black microplate. The reaction was then initiated by adding 90 μL of activated enzyme (final concentrations: 5 nM cathepsin B for its endopeptidase activity, 0.5 nM cathepsin B for its exopeptidase activity, 2.5 ng/mL for cathepsin V, and 0.02 nM for cathepsin L) in the assay buffer. The formation of fluorescent degradation products during the reaction was continuously monitored at 460 ± 10 nm with excitation at 380 ± 20 nm for Z-Arg-Arg-AMC and Z-Phe-Arg-AMC and at 420 ± 10 nm with excitation at 320 ± 20 nm for Abz-Gly-Ile-Val-Arg-Ala-Lys(Dnp)-OH at 37 °C on a Tecan Infinite M1000 (Mannedorf, Switzerland) spectrofluorometer. All assay mixtures contained 5% (v/v) DMSO. To prevent false-positive inhibition due to the formation of compound aggregates, 0.01% Triton X-100 was used. All measurements were performed in triplicate and repeated twice. The relative inhibition was calculated using the following equation: relative inhibition (%) = 100(1 – v i/v o), where v i and v o designate the reaction velocities in the presence and absence of inhibitor, respectively.

[1] = target: T2, human serum albumin (HSA) (Homo sapiens, UniProt P02768); experiment: Membrane ultrafiltration with HSA; assay type: binding; conditions: 1:2 protein-to-complex ratio (25 μM HSA, 50 μM complex), pH 7.4
T2 construct: purchased Sigma-Aldrich/Merck A8763
Description: To characterize the binding strength of the complex to HSA, the UV–vis spectrum of the complex was recorded in the presence of different amounts of the protein (Figure ). The gradual spectral changes leveled off at about 0.5 equiv of the protein, indicating at least two binding sites. However, from these spectral changes, no formation constants could be calculated due to the overlapping processes.
Milli-pore, Amicon Ultra-0.5 membrane filters (10 kDa) were used to separate samples containing 25 μM HSA and 50 μM complex (1:2 biomolecule-to-complex ratio) into low and high molecular mass (LMM and HMM) fractions as described in our former work. UV–vis spectrophotometry was used to determine the concentration of the nonbound compounds in the LMM fractions by comparing to a reference sample without the protein.

S. aureus ATCC 25923 = experiment: Antibacterial MIC assay, S. aureus ATCC 25923; assay type: cell-based, Staphylococcus aureus; conditions: 18 h, visual inspection
Description: The antibacterial effect of the complex was tested against the Gram-negative strain Escherichia coli (E. coli) ATCC 25922, the Gram-positive reference strain Staphylococcus aureus (S. aureus) ATCC 25923, and the methicillin-resistant S. aureus MRSA ATCC 43300 strain. MRSA strains are responsible for several difficult-to-treat hospital-acquired infections.
The following bacterial strains were used in our experiments: Gram-positive S. aureus American Type Culture Collection (ATCC) 25923 as the methicillin-susceptible reference bacterial strain; methicillin-resistant S. aureus ATCC 43300 (MRSA) strain; E. coli ATCC 25922 as a Gram-negative bacterial strain.
MIC values of the complexes were determined in 96-well plates based on the Clinical and Laboratory Standard Institute guidelines (CLSI guidelines). The stock solutions of the compound (dissolved in DMSO at 5 mM concentration) were diluted in 100 μL of Mueller Hinton Broth. Then, 10^–4 dilution of an overnight bacterial culture in 100 μL of medium was added to each well, with the exception of the medium control wells.

cathepsin V = target: T3, cathepsin V (Homo sapiens, UniProt O60911); experiment: Relative inhibition of cathepsin V; assay type: biochemical; conditions: 50 μM; substrate Z-Phe-Arg-AMC; pH 5.5
T3 construct: made in house; host or cells: Pichia pastoris
Excerpt: as §1, §2, §3

[2] = 10 mM HEPES pH 7.4, 25.0 °C
Description: Distribution coefficients (D 7.4) were determined using n-octanol/buffered aqueous solution (10 mM HEPES, pH = 7.4) partitioning (Table ).
The traditional shake-flask method was used to obtain the distribution coefficient of the complex in n-octanol/buffered aqueous solution (10 mM HEPES, pH = 7.4) using UV–vis spectrophotometry. The measurements and data evaluation were performed as in our previous work.

T2 sequence (P02768 25-609): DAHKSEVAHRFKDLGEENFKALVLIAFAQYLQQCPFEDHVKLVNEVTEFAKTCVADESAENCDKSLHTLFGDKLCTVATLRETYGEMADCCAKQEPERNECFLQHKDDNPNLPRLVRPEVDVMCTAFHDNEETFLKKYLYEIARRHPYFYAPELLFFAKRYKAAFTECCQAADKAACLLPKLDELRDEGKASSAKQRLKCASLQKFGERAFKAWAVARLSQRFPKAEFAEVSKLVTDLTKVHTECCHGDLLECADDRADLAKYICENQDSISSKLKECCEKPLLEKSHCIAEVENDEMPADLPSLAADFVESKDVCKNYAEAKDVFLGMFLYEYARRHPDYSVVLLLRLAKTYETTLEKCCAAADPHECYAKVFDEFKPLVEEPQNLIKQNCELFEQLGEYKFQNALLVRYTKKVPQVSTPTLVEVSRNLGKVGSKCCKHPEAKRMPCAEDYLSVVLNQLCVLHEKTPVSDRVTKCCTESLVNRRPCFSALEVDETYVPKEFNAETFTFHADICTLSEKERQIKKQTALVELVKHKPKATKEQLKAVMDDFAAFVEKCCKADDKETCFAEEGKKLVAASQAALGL
T3 sequence (O60911 114-334): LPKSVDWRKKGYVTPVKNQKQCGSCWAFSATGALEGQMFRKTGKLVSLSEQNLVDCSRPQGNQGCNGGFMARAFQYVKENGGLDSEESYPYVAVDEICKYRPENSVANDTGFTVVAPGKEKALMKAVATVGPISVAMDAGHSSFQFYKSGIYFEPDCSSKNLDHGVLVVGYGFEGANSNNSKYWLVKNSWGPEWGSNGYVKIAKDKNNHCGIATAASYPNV
T1 sequence (P07711 114-333): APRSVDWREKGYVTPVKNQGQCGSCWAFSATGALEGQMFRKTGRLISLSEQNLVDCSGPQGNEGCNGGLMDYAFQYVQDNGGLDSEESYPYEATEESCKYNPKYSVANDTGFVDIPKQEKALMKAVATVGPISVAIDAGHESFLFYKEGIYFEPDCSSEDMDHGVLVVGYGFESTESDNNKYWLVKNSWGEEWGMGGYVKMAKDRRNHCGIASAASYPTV

N#Cc1ccccc1.[C-]#[O+].[C-]#[O+].[C-]#[O+].[O-]n1ccccc1=S.[Re+] [complex 4, fac-[Re(CO)3(pth)(benzonitrile)]]
relative inhibition cathepsin L (cathepsin L): 5.0 ± 4.8% | unbound complex in low molecular mass fraction [1]: ~10% | MIC (S. aureus ATCC 25923): 6.25 µM | relative inhibition cathepsin V (cathepsin V): 9.1 ± 1.0% | log D7.4 ([2]; c(Cl–) 0 mM): +1.61 ± 0.18 | log D7.4 ([2]; c(Cl–) 4 mM): +1.67 ± 0.14 | log D7.4 ([2]; c(Cl–) 24 mM): +1.71 ± 0.13 | log D7.4 ([2]; c(Cl–) 100 mM): +1.71 ± 0.14
